Assay results from article PMC7093798 (Data in Brief, 2019).

System: aminopyrine N-demethylase activity (CYP)
Test: CYP inhibition: aminopyrine N-demethylase
Assay type: in vitro ADME, rat
Settings: RLM, 1–100 μM

In the case of `O=C(/C=C/c1cccnc1)NCCCCC1CCN(C(=O)c2ccccc2)CC1` [FK866], the “AND inhibitory activity (in words)” value is reported as “mild AND inhibitory activity only at 100 μM concentration”.
